Assay results reported in ChEMBL document CHEMBL3632585, “Probing the S2' Subsite of the Anthrax Toxin Lethal Factor Using Novel N-Alkylated Hydroxamates” (J Med Chem, 2015).

Assays:
Lethal factor [1] = molecular target: T1, Lethal factor (Bacillus anthracis, UniProt P15917); experiment: Inhibition of Bacillus anthracis Lethal factor after 10 mins by mobility shift protease assay using 8 uM FITC as substrate
T1 sequence (P15917 whole entry): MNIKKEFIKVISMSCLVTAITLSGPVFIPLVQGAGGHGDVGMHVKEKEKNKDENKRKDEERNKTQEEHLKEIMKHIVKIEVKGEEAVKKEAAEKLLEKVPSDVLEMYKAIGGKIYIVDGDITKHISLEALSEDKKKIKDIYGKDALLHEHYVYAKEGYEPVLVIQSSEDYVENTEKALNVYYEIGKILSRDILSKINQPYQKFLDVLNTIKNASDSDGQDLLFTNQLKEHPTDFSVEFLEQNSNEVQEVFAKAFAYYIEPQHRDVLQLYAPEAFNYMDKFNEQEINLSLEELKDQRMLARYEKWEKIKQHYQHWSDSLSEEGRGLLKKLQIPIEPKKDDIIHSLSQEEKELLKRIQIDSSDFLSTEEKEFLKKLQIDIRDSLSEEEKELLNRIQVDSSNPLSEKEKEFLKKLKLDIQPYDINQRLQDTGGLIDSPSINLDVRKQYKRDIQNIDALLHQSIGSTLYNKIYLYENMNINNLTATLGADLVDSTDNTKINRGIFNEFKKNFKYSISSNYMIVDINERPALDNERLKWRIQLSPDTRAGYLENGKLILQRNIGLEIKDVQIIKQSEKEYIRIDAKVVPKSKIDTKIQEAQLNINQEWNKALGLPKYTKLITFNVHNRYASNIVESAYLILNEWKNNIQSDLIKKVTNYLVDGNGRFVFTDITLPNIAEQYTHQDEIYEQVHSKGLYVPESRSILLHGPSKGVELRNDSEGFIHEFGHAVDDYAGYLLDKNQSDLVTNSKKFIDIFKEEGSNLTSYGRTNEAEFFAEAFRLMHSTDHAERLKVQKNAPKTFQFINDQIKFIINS

Lethal factor [2] = molecular target: T1, Lethal factor; experiment: Inhibition of Bacillus anthracis Lethal factor after 5 mins by FRET assay

`Cc1cc(S(=O)(=O)N(CCCCN)[C@H](C)C(=O)NO)ccc1F` was tested, and the IC50 (Lethal factor [1]) was 1.8 µM and the IC50 (Lethal factor [2]) was 7.4 µM.

`Cc1cc(S(=O)(=O)N(CCCCCCN)[C@H](C)C(=O)NO)ccc1F` showed an IC50 (Lethal factor [1]) of 1.1 µM and an IC50 (Lethal factor [2]) of 4.4 µM.

Work on `Cc1cc(S(=O)(=O)N(C)[C@H](C)C(=O)NO)ccc1F` yielded an IC50 (Lethal factor [1]) of 9.6 µM and an IC50 (Lethal factor [2]) of 37 µM.

`Cc1cc(S(=O)(=O)N(C(C)C)[C@H](C)C(=O)NO)ccc1F` was tested, and the IC50 (Lethal factor [1]) was > 100 µM and the IC50 (Lethal factor [2]) was > 100 µM.

With `CC(=O)NCCCCCN([C@H](C)C(=O)NO)S(=O)(=O)c1ccc(F)c(C)c1` the IC50 (Lethal factor [1]) was 4.3 µM and the IC50 (Lethal factor [2]) was 19 µM.

With `Cc1cc(S(=O)(=O)N(Cc2ccc(CCNC(=O)OC(C)(C)C)cc2)[C@H](C)C(=O)NO)ccc1F` the IC50 (Lethal factor [1]) was 2.1 µM and the IC50 (Lethal factor [2]) was 6.9 µM.

For `CNC(=O)CCCCCCCN([C@H](C)C(=O)NO)S(=O)(=O)c1ccc(F)c(C)c1`, the IC50 (Lethal factor [1]) was 9.3 µM and the IC50 (Lethal factor [2]) was 19 µM.

`Cc1cc(S(=O)(=O)N(Cc2ccc(CCN)cc2)[C@H](C)C(=O)NO)ccc1F` gave an IC50 (Lethal factor [1]) of 1.2 µM and an IC50 (Lethal factor [2]) of 8.9 µM.

`CC(=O)NCCCCCCN([C@H](C)C(=O)NO)S(=O)(=O)c1ccc(F)c(C)c1` showed an IC50 (Lethal factor [1]) of 3.9 µM and an IC50 (Lethal factor [2]) of 14 µM.

`Cc1cc(S(=O)(=O)N(CCOCc2ccccc2)[C@H](C)C(=O)NO)ccc1F` gave an IC50 (Lethal factor [1]) of 14 µM and an IC50 (Lethal factor [2]) of 57 µM.

Compound `Cc1cc(S(=O)(=O)N(CCCN)[C@H](C)C(=O)NO)ccc1F` has an IC50 (Lethal factor [1]) of 3.7 µM and an IC50 (Lethal factor [2]) of 12 µM.

With `Cc1cc(S(=O)(=O)N(Cc2c(F)cccc2F)[C@H](C)C(=O)NO)ccc1F` the IC50 (Lethal factor [1]) was 13 µM and the IC50 (Lethal factor [2]) was 42 µM.

With `Cc1cc(S(=O)(=O)N(Cc2ccc(CN)cc2)[C@H](C)C(=O)NO)ccc1F` the IC50 (Lethal factor [1]) was 1.3 µM and the IC50 (Lethal factor [2]) was 5.6 µM.

Compound `CC(=O)NCCCN([C@H](C)C(=O)NO)S(=O)(=O)c1ccc(F)c(C)c1` has an IC50 (Lethal factor [1]) of 30 µM and an IC50 (Lethal factor [2]) of 117 µM.

Compound `CC(=O)NCc1ccc(CN([C@H](C)C(=O)NO)S(=O)(=O)c2ccc(F)c(C)c2)cc1` has an IC50 (Lethal factor [1]) of 3.5 µM and an IC50 (Lethal factor [2]) of 16 µM.

Compound `Cc1cc(S(=O)(=O)N(CCCCCCCC(=O)OC(C)(C)C)[C@H](C)C(=O)NO)ccc1F` has an IC50 (Lethal factor [1]) of 3.2 µM and an IC50 (Lethal factor [2]) of 8 µM.

Compound `Cc1cc(S(=O)(=O)N(Cc2ccccc2F)[C@H](C)C(=O)NO)ccc1F` has an IC50 (Lethal factor [1]) of 9.5 µM and an IC50 (Lethal factor [2]) of 33 µM.

Work on `Cc1cc(S(=O)(=O)N(Cc2cc(F)cc(F)c2)[C@H](C)C(=O)NO)ccc1F` yielded an IC50 (Lethal factor [1]) of 7 µM and an IC50 (Lethal factor [2]) of 26 µM.

Compound `CC(=O)NCc1cccc(CN([C@H](C)C(=O)NO)S(=O)(=O)c2ccc(F)c(C)c2)c1` has an IC50 (Lethal factor [1]) of 4.7 µM and an IC50 (Lethal factor [2]) of 15 µM.

`Cc1cc(S(=O)(=O)N(CCCCCN)[C@H](C)C(=O)NO)ccc1F` was tested, and the IC50 (Lethal factor [1]) was 1.3 µM and the IC50 (Lethal factor [2]) was 8.2 µM.

`Cc1cc(S(=O)(=O)N[C@H](C)C(=O)NO)ccc1F` gave an IC50 (Lethal factor [1]) of 0.5 µM and an IC50 (Lethal factor [2]) of 1.6 µM.

With `CC(=O)NCCc1ccc(CN([C@H](C)C(=O)NO)S(=O)(=O)c2ccc(F)c(C)c2)cc1` the IC50 (Lethal factor [1]) was 3.2 µM and the IC50 (Lethal factor [2]) was 17 µM.

Work on `Cc1cc(S(=O)(=O)N(CCCCCCCC(=O)O)[C@H](C)C(=O)NO)ccc1F` yielded an IC50 (Lethal factor [1]) of 47 µM and an IC50 (Lethal factor [2]) of 91 µM.

Work on `CC(=O)Nc1cccc(CN([C@H](C)C(=O)NO)S(=O)(=O)c2ccc(F)c(C)c2)c1` yielded an IC50 (Lethal factor [1]) of 4.8 µM and an IC50 (Lethal factor [2]) of 21 µM.

`Cc1cc(S(=O)(=O)N(Cc2ccc(N)cc2)[C@H](C)C(=O)NO)ccc1F` was tested, and the IC50 (Lethal factor [1]) was 6.4 µM and the IC50 (Lethal factor [2]) was 29 µM.

With `Cc1cc(S(=O)(=O)N(Cc2cccc(CN)c2)[C@H](C)C(=O)NO)ccc1F` the IC50 (Lethal factor [1]) was 1.7 µM and the IC50 (Lethal factor [2]) was 10 µM.

With `Cc1cc(S(=O)(=O)N(Cc2ccc(CNC(=O)OC(C)(C)C)cc2)[C@H](C)C(=O)NO)ccc1F` the IC50 (Lethal factor [1]) was 3.4 µM and the IC50 (Lethal factor [2]) was 15 µM.

`Cc1cc(S(=O)(=O)N(Cc2ccc(F)cc2)[C@H](C)C(=O)NO)ccc1F` was tested, and the IC50 (Lethal factor [1]) was 11 µM and the IC50 (Lethal factor [2]) was 29 µM.
